Measurements reported in PubChem BioAssay AID1963853 (Molecular Pharmacology Branch, DTP, NCI, 2024).

Tested on: 266295-075-R-J1-PDC spheroid viability
Test: Anticancer human tumor 266295-075-R-J1-PDC patient-derived head and neck squamous carcinoma cell line growth inhibition [POLQ]
Conditions: spheroids with HUVEC and MSC; for IC50: curve of first compound; for viability, T/C: stronger effect = lower value
Outline: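 Growth inhibition in 3D: complex spheroids (tumor PDC, HUVEC, MSC) treated with POLQ inhibitor combinations; where Cmax unknown, highest tested concentration 10 microM, except SN-38 at 1 microM.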

[1] = second compound 0.0316 µM, first compound 0.0316 µM
[2] = second compound 0.0316 µM, first compound 0.1 µM
[3] = second compound 0.0316 µM, first compound 0.316 µM
[4] = second compound 0.0316 µM, first compound 1 µM
[5] = second compound 0.0316 µM, first compound 3.16 µM
[6] = second compound 0.0316 µM, first compound 10 µM
[7] = second compound 0.1 µM, first compound 0.0316 µM
[8] = second compound 0.1 µM, first compound 0.1 µM
[9] = second compound 0.1 µM, first compound 0.316 µM
[10] = second compound 0.1 µM, first compound 1 µM
[11] = second compound 0.1 µM, first compound 3.16 µM
[12] = second compound 0.1 µM, first compound 10 µM
[13] = second compound 0.316 µM, first compound 0.0316 µM
[14] = second compound 0.316 µM, first compound 0.1 µM
[15] = second compound 0.316 µM, first compound 0.316 µM
[16] = second compound 0.316 µM, first compound 1 µM
[17] = second compound 0.316 µM, first compound 3.16 µM
[18] = second compound 0.316 µM, first compound 10 µM
[19] = second compound 1 µM, first compound 0.0316 µM
[20] = second compound 1 µM, first compound 0.1 µM
[21] = second compound 1 µM, first compound 0.316 µM
[22] = second compound 1 µM, first compound 1 µM
[23] = second compound 1 µM, first compound 3.16 µM
[24] = second compound 1 µM, first compound 10 µM
[25] = second compound 3.16 µM, first compound 0.0316 µM
[26] = second compound 3.16 µM, first compound 0.1 µM
[27] = second compound 3.16 µM, first compound 0.316 µM
[28] = second compound 3.16 µM, first compound 1 µM
[29] = second compound 3.16 µM, first compound 3.16 µM
[30] = second compound 3.16 µM, first compound 10 µM
[31] = second compound 10 µM, first compound 0.0316 µM
[32] = second compound 10 µM, first compound 0.1 µM
[33] = second compound 10 µM, first compound 0.316 µM
[34] = second compound 10 µM, first compound 1 µM
[35] = second compound 10 µM, first compound 3.16 µM
[36] = second compound 10 µM, first compound 10 µM
[37] = second compound 0.0316 µM, first compound 0.00316 µM
[38] = second compound 0.0316 µM, first compound 0.01 µM
[39] = second compound 0.1 µM, first compound 0.00316 µM
[40] = second compound 0.1 µM, first compound 0.01 µM
[41] = second compound 0.316 µM, first compound 0.00316 µM
[42] = second compound 0.316 µM, first compound 0.01 µM
[43] = second compound 1 µM, first compound 0.00316 µM
[44] = second compound 1 µM, first compound 0.01 µM
[45] = second compound 3.16 µM, first compound 0.00316 µM
[46] = second compound 3.16 µM, first compound 0.01 µM
[47] = second compound 10 µM, first compound 0.00316 µM
[48] = second compound 10 µM, first compound 0.01 µM
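Also: spheroids exposed to compounds for seven days before readout.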

## CC1COCCN1c1cc(C2(S(C)(=N)=O)CC2)nc(-c2ccnc3[nH]ccc23)n1 (stereo not given) + Cc1cccc(N(C)C(=O)C2C(O)CCN2c2nc(C)cc(C(F)(F)F)c2C#N)c1
Second compound 0.0316 µM
  IC50: > 10 µM
Second compound 0.1 µM
  IC50: > 10 µM
Second compound 0.316 µM
  IC50: > 10 µM
Second compound 1 µM
  IC50: 9.31 µM
Second compound 3.16 µM
  IC50: > 10 µM
Second compound 10 µM
  IC50: > 10 µM
[1]
  viability, T/C: 101%
[2]
  viability, T/C: 83.2%
[3]
  viability, T/C: 87%
[4]
  viability, T/C: 79.8%
[5]
  viability, T/C: 81.3%
[6]
  viability, T/C: 57%
[7]
  viability, T/C: 95.2%
[8]
  viability, T/C: 83.5%
[9]
  viability, T/C: 79.3%
[10]
  viability, T/C: 86.8%
[11]
  viability, T/C: 72.1%
[12]
  viability, T/C: 55.1%
[13]
  viability, T/C: 89.8%
[14]
  viability, T/C: 98.6%
[15]
  viability, T/C: 111%
[16]
  viability, T/C: 81.4%
[17]
  viability, T/C: 75.8%
[18]
  viability, T/C: 56.7%
[19]
  viability, T/C: 94.4%
[20]
  viability, T/C: 100%
[21]
  viability, T/C: 96.8%
[22]
  viability, T/C: 82.5%
[23]
  viability, T/C: 69.8%
[24]
  viability, T/C: 48.5%
[25]
  viability, T/C: 103%
[26]
  viability, T/C: 93.6%
[27]
  viability, T/C: 81.4%
[28]
  viability, T/C: 89.3%
[29]
  viability, T/C: 72.5%
[30]
  viability, T/C: 55.2%
[31]
  viability, T/C: 92.8%
[32]
  viability, T/C: 98.1%
[33]
  viability, T/C: 97.1%
[34]
  viability, T/C: 94.3%
[35]
  viability, T/C: 74.2%
[36]
  viability, T/C: 56.2%

## CCCS(=O)(=O)Nc1ccc(F)c(C(=O)c2c[nH]c3ncc(-c4ccc(Cl)cc4)cc23)c1F + Cc1cccc(N(C)C(=O)C2C(O)CCN2c2nc(C)cc(C(F)(F)F)c2C#N)c1
Second compound 0.0316 µM
  IC50: > 10 µM
Second compound 0.1 µM
  IC50: > 10 µM
Second compound 0.316 µM
  IC50: > 10 µM
Second compound 1 µM
  IC50: > 10 µM
Second compound 3.16 µM
  IC50: > 10 µM
Second compound 10 µM
  IC50: > 10 µM
[1]
  viability, T/C: 108%
[2]
  viability, T/C: 97.7%
[3]
  viability, T/C: 122%
[4]
  viability, T/C: 161%
[5]
  viability, T/C: 150%
[6]
  viability, T/C: 126%
[7]
  viability, T/C: 127%
[8]
  viability, T/C: 81.3%
[9]
  viability, T/C: 92.8%
[10]
  viability, T/C: 126%
[11]
  viability, T/C: 187%
[12]
  viability, T/C: 142%
[13]
  viability, T/C: 95.5%
[14]
  viability, T/C: 93%
[15]
  viability, T/C: 98.1%
[16]
  viability, T/C: 134%
[17]
  viability, T/C: 171%
[18]
  viability, T/C: 139%
[19]
  viability, T/C: 118%
[20]
  viability, T/C: 76.5%
[21]
  viability, T/C: 95.5%
[22]
  viability, T/C: 132%
[23]
  viability, T/C: 158%
[24]
  viability, T/C: 142%
[25]
  viability, T/C: 106%
[26]
  viability, T/C: 100%
[27]
  viability, T/C: 96.6%
[28]
  viability, T/C: 111%
[29]
  viability, T/C: 155%
[30]
  viability, T/C: 132%
[31]
  viability, T/C: 96.3%
[32]
  viability, T/C: 137%
[33]
  viability, T/C: 113%
[34]
  viability, T/C: 111%
[35]
  viability, T/C: 187%
[36]
  viability, T/C: 134%

## CNCc1ccc(-c2[nH]c3cc(F)cc4c3c2CCNC4=O)cc1 + Cc1cccc(N(C)C(=O)C2C(O)CCN2c2nc(C)cc(C(F)(F)F)c2C#N)c1
Second compound 0.0316 µM
  IC50: > 10 µM
Second compound 0.1 µM
  IC50: > 10 µM
Second compound 0.316 µM
  IC50: > 10 µM
Second compound 1 µM
  IC50: > 10 µM
Second compound 3.16 µM
  IC50: > 10 µM
Second compound 10 µM
  IC50: > 10 µM
[1]
  viability, T/C: 87.1%
[2]
  viability, T/C: 117%
[3]
  viability, T/C: 87.5%
[4]
  viability, T/C: 105%
[5]
  viability, T/C: 107%
[6]
  viability, T/C: 102%
[7]
  viability, T/C: 95.4%
[8]
  viability, T/C: 99.8%
[9]
  viability, T/C: 88.2%
[10]
  viability, T/C: 84.2%
[11]
  viability, T/C: 126%
[12]
  viability, T/C: 128%
[13]
  viability, T/C: 104%
[14]
  viability, T/C: 111%
[15]
  viability, T/C: 104%
[16]
  viability, T/C: 99.1%
[17]
  viability, T/C: 98.3%
[18]
  viability, T/C: 112%
[19]
  viability, T/C: 102%
[20]
  viability, T/C: 102%
[21]
  viability, T/C: 99.9%
[22]
  viability, T/C: 93.6%
[23]
  viability, T/C: 110%
[24]
  viability, T/C: 123%
[25]
  viability, T/C: 105%
[26]
  viability, T/C: 88.7%
[27]
  viability, T/C: 101%
[28]
  viability, T/C: 102%
[29]
  viability, T/C: 112%
[30]
  viability, T/C: 115%
[31]
  viability, T/C: 90.1%
[32]
  viability, T/C: 115%
[33]
  viability, T/C: 113%
[34]
  viability, T/C: 126%
[35]
  viability, T/C: 107%
[36]
  viability, T/C: 106%

## COc1cccc(OCCCN)c1-c1cc(Nc2cnc(C#N)cn2)n[nH]1 + Cc1cccc(N(C)C(=O)C2C(O)CCN2c2nc(C)cc(C(F)(F)F)c2C#N)c1
Second compound 0.0316 µM
  IC50: > 1 µM
Second compound 0.1 µM
  IC50: > 1 µM
Second compound 0.316 µM
  IC50: > 1 µM
Second compound 1 µM
  IC50: 0.985 µM
Second compound 3.16 µM
  IC50: > 1 µM
Second compound 10 µM
  IC50: > 1 µM
[37]
  viability, T/C: 128%
[38]
  viability, T/C: 127%
[1]
  viability, T/C: 87.2%
[2]
  viability, T/C: 80%
[3]
  viability, T/C: 81.7%
[4]
  viability, T/C: 72%
[39]
  viability, T/C: 101%
[40]
  viability, T/C: 101%
[7]
  viability, T/C: 83.3%
[8]
  viability, T/C: 76.3%
[9]
  viability, T/C: 79.1%
[10]
  viability, T/C: 62%
[41]
  viability, T/C: 109%
[42]
  viability, T/C: 90.7%
[13]
  viability, T/C: 68%
[14]
  viability, T/C: 71.1%
[15]
  viability, T/C: 72.1%
[16]
  viability, T/C: 63.9%
[43]
  viability, T/C: 127%
[44]
  viability, T/C: 85.5%
[19]
  viability, T/C: 89.8%
[20]
  viability, T/C: 75.1%
[21]
  viability, T/C: 66.7%
[22]
  viability, T/C: 50.1%
[45]
  viability, T/C: 106%
[46]
  viability, T/C: 101%
[25]
  viability, T/C: 77.7%
[26]
  viability, T/C: 77.7%
[27]
  viability, T/C: 75.2%
[28]
  viability, T/C: 64.8%
[47]
  viability, T/C: 107%
[48]
  viability, T/C: 108%
[31]
  viability, T/C: 81.5%
[32]
  viability, T/C: 74.3%
[33]
  viability, T/C: 58.5%
[34]
  viability, T/C: 75.3%

## Cn1ncnc1[C@H]1c2n[nH]c(=O)c3cc(F)cc(c23)N[C@@H]1c1ccc(F)cc1 + Cc1cccc(N(C)C(=O)C2C(O)CCN2c2nc(C)cc(C(F)(F)F)c2C#N)c1
Second compound 0.0316 µM
  IC50: > 0.1 µM
Second compound 0.1 µM
  IC50: > 0.1 µM
Second compound 0.316 µM
  IC50: > 0.1 µM
Second compound 1 µM
  IC50: > 0.1 µM
Second compound 3.16 µM
  IC50: > 0.1 µM
Second compound 10 µM
  IC50: > 0.1 µM
Second compound 0.0316 µM, first compound 0.000316 µM
  viability, T/C: 88.2%
Second compound 0.0316 µM, first compound 0.001 µM
  viability, T/C: 93.7%
[37]
  viability, T/C: 84.3%
[38]
  viability, T/C: 109%
[1]
  viability, T/C: 100%
[2]
  viability, T/C: 96.5%
Second compound 0.1 µM, first compound 0.000316 µM
  viability, T/C: 99.4%
Second compound 0.1 µM, first compound 0.001 µM
  viability, T/C: 104%
[39]
  viability, T/C: 85.4%
[40]
  viability, T/C: 115%
[7]
  viability, T/C: 90%
[8]
  viability, T/C: 87.9%
Second compound 0.316 µM, first compound 0.000316 µM
  viability, T/C: 108%
Second compound 0.316 µM, first compound 0.001 µM
  viability, T/C: 99.2%
[41]
  viability, T/C: 99.1%
[42]
  viability, T/C: 104%
[13]
  viability, T/C: 95.7%
[14]
  viability, T/C: 99.7%
Second compound 1 µM, first compound 0.000316 µM
  viability, T/C: 103%
Second compound 1 µM, first compound 0.001 µM
  viability, T/C: 122%
[43]
  viability, T/C: 89%
[44]
  viability, T/C: 97.1%
[19]
  viability, T/C: 113%
[20]
  viability, T/C: 75.8%
Second compound 3.16 µM, first compound 0.000316 µM
  viability, T/C: 94.1%
Second compound 3.16 µM, first compound 0.001 µM
  viability, T/C: 96.7%
[45]
  viability, T/C: 85.2%
[46]
  viability, T/C: 118%
[25]
  viability, T/C: 104%
[26]
  viability, T/C: 104%
Second compound 10 µM, first compound 0.000316 µM
  viability, T/C: 119%
Second compound 10 µM, first compound 0.001 µM
  viability, T/C: 104%
[47]
  viability, T/C: 101%
[48]
  viability, T/C: 105%
[31]
  viability, T/C: 109%
[32]
  viability, T/C: 114%
